Data: patent publication US20110294874A1, “DIAGNOSIS AND THERAPY OF ORGAN DYSFUNCTION USING SPHINGANINE-1-PHOSPHATE” (The Trustees of Columbia University in the City of New York, priority 2008, published 2011)
“And” between values parts separate entries of the source, which are not always exact repeats. Equal values may be shown once.

Assays:
Format in all cases: in vivo, mouse
[1] = tested on: C57BL/6 mice subjected to liver IR; assay: Apoptosis (TUNEL, DNA laddering, caspase 3) and F-actin (phalloidin) in liver and kidney after liver IR
Procedure: (§1) Mice were anesthetized with intraperitoneal pentobarbital (50 mg/kg or to effect). Mice were placed under a heating lamp and on a 37° C. heating pad. After a midline laparotomy and intraperitoneal application of 20 U heparin, left lateral and median lobes of the liver were subjected to ischemia with a microaneurysm clip occluding the hepatic triad above the bifurcation. This method of partial hepatic ischemia results in a segmental (˜70%) hepatic ischemia but spares the right lobe of the liver and prevents mesenteric venous congestion by allowing portal decompression throughout the right and caudate lobes of the liver. The liver was then repositioned in the peritoneal cavity in its original location for 60 minutes. The liver was kept moist with gauze soaked in 0.9% normal saline. The body temperature was monitored by an infrared temperature sensor (Linear Laboratories, Fremont, Calif.) every 10 min. and maintained at 37° C. using a heating lamp and a heating pad. After 60 minutes, the liver was reperfused and the wound closed. Sham-operated mice were subjected to laparotomy and identical liver manipulations without vascular occlusion. Two, 4 and 24 hr after reperfusion, plasma was collected for the measurement of alanine aminotransferase (ALT), a common indicator of liver damage, as well as creatinine (Cr) a common indicator of kidney damage. The liver tissue subjected to IR was collected to measure percent liver necrosis (2, 4 and 24 hr after IR), neutrophil infiltration (with immunohistochemistry, 4 and 24 hr after IR), apoptosis (with terminal deoxynucleotidyl transferase-mediated dUTP nick end labeling staining, caspase 3 immunoblotting and DNA laddering, 24 hr after IR), and inflammation by RT-PCR for pro-inflammatory mRNAs (4 hr after IR).
Apoptosis was detected in both liver and kidney taken from mice subjected to liver IR, through TUNEL staining, DNA laddering and caspase 3 fragmentation.

[2] = tested on: C57BL/6 mice subjected to liver IR; assay: Kidney H&E histology after liver IR; conditions: vs vehicle-treated controls
Description: Liver IR-induced AKI in mice shared similar histological changes observed in human AKI associated with liver failure, as observed in H&E slides of kidney sections taken from the mice (see FIG. 3). Multifocal acute tubular injury including individual cell necrosis involving the juxtamedullary proximal tubules of the S3 segment was observed. […] Endothelial apoptosis of peritubular capillaries was also visible in H&E sections as linear arrays of apoptotic bodies corresponding to the interstitial capillary lining endothelium. […] The number of glomeruli with detectable juxtaglomerular apparatus and the number of cells per juxtaglomerular apparatus were both increased after liver IR, indicating hyperplasia of the juxtaglomerular apparatus. […] Liver IR produced large necrotic areas of liver tissue. The average percentage of necrotic areas in liver samples taken from liver IR mice were 92%±2% (n=6), while no necrosis was found in sham-operated mice. Livers were also analyzed for the degree of hepatocellular damage.

[3] = tested on: C57BL/6 mice subjected to liver IR; assay: Survival of mice after liver IR; conditions: 24 hours post liver IR
Description: Without Sg1P administration, 20% of mice subjected to liver IR stayed alive after 1 week. With Sg1P treatment, 50% of mice subjected to liver IR that received Sg1P remained alive after the same time period.

[4] = tested on: SK2 KO mice subjected to liver IR; assay: Liver IR in SK2 KO mice: plasma ALT and creatinine; conditions: SK2KO, hepatic IR 24 h
Procedure: The effects of administering Sg1P (0.1 mg/kg i.v. and 0.2 mg/kg s.c.) on liver and renal injury were also determined in the KO mice and are also shown in Tables 9 and 10 below.

[5] = tested on: Nephrectomized C57BL/6 mice with liver IR; assay: Nephrectomized C57BL/6 mice with 45 min. liver IR: serum ALT
Procedure: Normally, 1 hour of liver IR results in serum ALT increasing to 15076±1174 U/L (N=6) 24 hours later. In nephrectomized mice, however, the rise in ALT was more severe, and it rose to 20237±2628 U/L (N=3) after only 45 minutes of liver IR. The nephrectomized mice were also less responsive to Sg1P treatment.

[6] = tested on: Sham-operated C57BL/6 mice; assay: Sham-operated C57BL/6 mice: plasma ALT and creatinine
Procedure: as §1, with “The liver tissue subjected to IR was collected to measure percent liver necrosis (2, 4 and 24 hr after IR), neutrophil infiltration (with immunohistochemistry, 4 and 24 hr after IR), apoptosis (with terminal deoxynucleotidyl transferase-mediated dUTP nick end labeling staining, caspase 3 immunoblotting and DNA laddering, 24 hr after IR), and inflammation by RT-PCR for pro-inflammatory mRNAs (4 hr after IR).” left out

[7] = tested on: C57BL/6 mice subjected to liver IR; assay: Murine model of liver ischemia reperfusion (hepatic IR): plasma ALT and creatinine
[8] = tested on: C57BL/6 mice subjected to liver IR; assay: Evans blue dye extravasation (vascular permeability) in liver and kidney after liver IR; conditions: vs vehicle-treated group
Procedure: After observing marked endothelial apoptosis following liver IR, liver and kidney vascular permeability after liver IR was measured with Evans blue dye (EBD) injection. EBD binds to plasma proteins and its appearance in extravascular tissues reflects an increase in vascular permeability, which is indicative of organ injury. Liver IR increased the EBD content (in μg EBD/g dry weight) in the liver (377±48, N=6) compared to sham-operated mice (48±7, N=4, p<0.001).

[9] = nephrectomized, 45 min. liver IR
[10] = 0.2 mg/kg i.v. 2 hours post-reperfusion
[11] = C57BL/6 mice, 60 min liver ischemia, 24 h reperfusion
[12] = single dose 0.1 mg/kg i.v. immediately before reperfusion
[13] = single dose 0.2 mg/kg s.c. two hours after reperfusion

## CCCCCCCCCCCCCCC[C@@H](O)[C@@H](N)COP(=O)(O)O [Sg1P, sphinganine-1-phosphate]
[1]
  Caspase 3 fragmentation in liver and kidney: significantly reduced
  TUNEL staining, DNA laddering in liver and kidney: significantly reduced
[1]; vs vehicle
  F-actin structure in liver and kidney (phalloidin): better-preserved F-actin structure
[2]
  Indications of AKI in kidney H&E slides: significantly less indications of AKI
[3]
  Survival rate: ~90%
[4]
  Creatinine (mean): 0.679 mg/dL
[4]; 0.1 mg/kg i.v. and 0.2 mg/kg s.c.
  ALT (mean): 7575.28 U/L
[5]; nephrectomized mice
  Reduction in the severity of liver injury (change in ALT levels): 16%
[5]; [9]
  ALT (24 hrs. post-IR), individual mice: 15993.65 U/L and 19276.19 U/L and 15819.05 U/L
  ALT (24 hrs. post-IR), mean: 17029±1124 U/L and 17029.63 U/L
[6]
  Mean ALT: 80 U/L
  Mean Creatinine: 0.46 mg/dL
[7]; [10]
  ALT (liver protection): 12063±593 U/L
  Creatinine (kidney protection): 0.93 ± 0.05 mg/dL
[7]; [11]
  Serum ALT (mean): 7474±557 U/L and 7474 U/L
  Serum creatinine (mean): 0.528 ± 0.07 mg/dL and 0.55 mg/dL
[7]; dose response 0.01-1.0 mg/kg i.v. prior to reperfusion plus double dose s.c. 2 h after, serum creatinine and ALT
  Most effective dose for treating both kidney and liver failure: 0.1 mg/kg i.v. prior to reperfusion followed by 0.2 mg/kg s.c. 2 hours after reperfusion
[7]; non-nephrectomized mice
  Reduction in the severity of liver injury (change in ALT levels): 50%
[7]; [12]
  ALT: 7197±753 U/L
  Cr: 0.58 ± 0.06 mg/dL
[7]; [13]
  ALT: 14762±1732 U/L
  Cr: 0.98 ± 0.06 mg/dL
[8]
  Increase in EBD content in liver and kidney: significantly lower
